# Data as given in patent US20240016781A1, “TREATMENT OF KRAS MUTANT CANCERS” (MEI Pharma, Inc., priority 2020, published 2024).
# Read-outs that look alike come from different tables or passages of the source.
# Experiments:
# Assay in all cases: 72-hour CellTiter-Glo 2.0 growth inhibition screen (single agent, 9x9 combination dose matrix);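 for Best CI Level: inhibition effect level at which the best CI was calculated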
# Format in all cases: cell-based
# HCC44 = details: for EC50: HCC44, 72 h
# Gp2D = details: for EC50: GP2d
# TOV-21G = test system: TOV-21G;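 for Best CI Level: inhibition effect level at which the best CI was calculated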
# NCI-H358 = details: for EC50: NCI-H358, 72 h
# [1] = HCC44 (KRAS G12C), enhancer + MEI-522 (Voruciclib), 72 h;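 for Best CI Level: inhibition effect level at which the best CI was calculated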
# [2] = Homo sapiens, HCC44, Lung, Additional Single Agent Responses (inhibition, % I), 72 h
# [3] = Homo sapiens, HCC44, Lung, growth inhibition (GI) curve, single agent, 72 h
# [4] = enhancer combined with MEI-522 (Voruciclib), HCC44 (Lung), 72 hours, inhibition data
# [5] = Gp2D (KRAS G12D), enhancer + MEI-522 (Voruciclib), 72 h;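 for Best CI Level: inhibition effect level at which the best CI was calculated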
# [6] = Gp2D, Colorectal, Additional Single Agent Responses (inhibition, % I), 72 h
# [7] = enhancer combined with MEI-522 (Voruciclib), Gp2D (Colorectal), 72 hours, inhibition data
# [8] = TOV-21G (KRAS G13C), enhancer + MEI-522 (Voruciclib), 72 h;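 for Best CI Level: inhibition effect level at which the best CI was calculated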
# [9] = enhancer combined with MEI-522 (Voruciclib), TOV-21G (Ovary), 72 hours, inhibition data
# [10] = NCl-H358 (KRAS G12C), enhancer + MEI-522 (Voruciclib), 72 h
# [11] = enhancer combined with MEI-522 (Voruciclib), NCl-H358 (Lung), 72 hours, inhibition data
structure (smiles),measurement,setting,value
CC[C@@H]1C(=O)N(C)c2cnc(Nc3ccc(C(=O)N[C@H]4CC[C@H](N5CCN(CC6CC6)CC5)CC4)cc3OC)nc2N1C(C)C [Volasertib],Best CI,HCC44; [1],0.55
same,Bliss Volume,HCC44; [1],6.88
same,HSA volume,HCC44; [1],2.51
same,Loewe Volume,HCC44; [1],0.65
same,Synergy Score,HCC44; [1],6.97
same,Response Area,"HCC44; HCC44, Lung, Additional Single Agent Responses (inhibition, % I), 72 h",4.07
same,Response Area,"HCC44; HCC44, Lung, growth inhibition (GI), AUC, single agent, 72 h",5.39
same,EC50,HCC44; [2],4.2 nM
same,EC50,HCC44; [3],4.5 nM
same,IC50,HCC44; [2],6.3 nM
same,Emax,"HCC44; Homo sapiens, HCC44, Lung, Additional Single Agent Responses, 72 h, read-out: Max Response (% I)",81%
same,GI50,HCC44; [3],4.4 nM
same,Emax,"HCC44; Homo sapiens, HCC44, Lung, growth inhibition (GI), single agent, 72 h, read-out: Max Response (% GI)",113%
same,Best CI,HCC44; [4],0.83
same,Bliss Volume,HCC44; [4],−1.88
same,HSA volume,HCC44; [4],0.12
same,Loewe Volume,HCC44; [4],−0.92
same,Synergy Score,HCC44; [4],1.13
same,Best CI Level,"HCC44; enhancer combined with MEI-522 (Voruciclib), HCC44 (Lung), 72 hours, inhibition data, unit assumed",80%
same,EC50,"Gp2D; 72 h, Colorectal, Additional Single Agent Responses (inhibition, % I)",2.1 nM
same,EC50,"Gp2D; 72 h, Colorectal, growth inhibition (GI) curve, single agent",2.5 nM
same,Best CI,Gp2D; [5],0.59
same,Bliss Volume,Gp2D; [5],9.40
same,HSA volume,Gp2D; [5],0.44
same,Loewe Volume,Gp2D; [5],1.73
same,Synergy Score,Gp2D; [5],15.26
same,IC50,Gp2D; [6],2.4 nM
same,Response Area,Gp2D; [6],4.53
same,Emax,"Gp2D; Gp2D, Colorectal, Additional Single Agent Responses, 72 h, read-out: Max Response (% I)",91%
same,GI50,"Gp2D; Gp2D, Colorectal, growth inhibition (GI) curve, single agent, 72 h",2.2 nM
same,Response Area,"Gp2D; Gp2D, Colorectal, growth inhibition (GI), AUC, single agent, 72 h",6.83
same,Emax,"Gp2D; Gp2D, Colorectal, growth inhibition (GI), single agent, 72 h, read-out: Max Response (% GI)",161%
same,Best CI,Gp2D; [7],0.16
same,Best CI Level,Gp2D; [7],80
same,Bliss Volume,Gp2D; [7],−1.26
same,HSA volume,Gp2D; [7],−0.27
same,Loewe Volume,Gp2D; [7],−0.15
same,Synergy Score,Gp2D; [7],2.39
same,EC50,"TOV-21G; Homo sapiens, TOV21G, 72 h, TOV-21G, Ovary, Additional Single Agent Responses (inhibition, % I)",10 nM
same,EC50,"TOV-21G; Homo sapiens, TOV21G, 72 h, TOV-21G, Ovary, growth inhibition (GI) curve, single agent",13.8 nM
same,IC50,"TOV-21G; Homo sapiens, TOV21G, TOV-21G, Ovary, Additional Single Agent Responses (inhibition, % I), 72 h",11.6 nM
same,Emax,"TOV-21G; Homo sapiens, TOV21G, TOV-21G, Ovary, Additional Single Agent Responses, 72 h, read-out: Max Response (% I)",89%
same,GI50,"TOV-21G; Homo sapiens, TOV21G, TOV-21G, Ovary, growth inhibition (GI) curve, single agent, 72 h",8.4 nM
same,Emax,"TOV-21G; Homo sapiens, TOV21G, TOV-21G, Ovary, growth inhibition (GI), single agent, 72 h, read-out: Max Response (% GI)",163%
same,Best CI,TOV-21G; [8],0.56
same,Bliss Volume,TOV-21G; [8],2.45
same,HSA volume,TOV-21G; [8],−4.18
same,Loewe Volume,TOV-21G; [8],−6.03
same,Synergy Score,TOV-21G; [8],1.71
same,Response Area,"TOV-21G; TOV-21G, Ovary, Additional Single Agent Responses (inhibition, % I), 72 h",4.33
same,Response Area,"TOV-21G; TOV-21G, Ovary, growth inhibition (GI), AUC, single agent, 72 h",7.56
same,Best CI,TOV-21G; [9],0.76
same,Best CI Level,TOV-21G; [9],20
same,Bliss Volume,TOV-21G; [9],−1.60
same,HSA volume,TOV-21G; [9],−1.29
same,Loewe Volume,TOV-21G; [9],−1.80
same,Synergy Score,TOV-21G; [9],0.60
same,EC50,"NCI-H358; Homo sapiens, NCl-H358, Lung, Additional Single Agent Responses (inhibition, % I), 72 h",6.1 nM
same,EC50,"NCI-H358; Homo sapiens, NCl-H358, Lung, growth inhibition (GI) curve, single agent, 72 h",6.1 nM
same,IC50,"NCI-H358; Homo sapiens, NCI-H358, NCl-H358, Lung, Additional Single Agent Responses (inhibition, % I), 72 h",7.8 nM
same,Emax,"NCI-H358; Homo sapiens, NCI-H358, NCl-H358, Lung, Additional Single Agent Responses, 72 h, read-out: Max Response (% I)",75%
same,GI50,"NCI-H358; Homo sapiens, NCI-H358, NCl-H358, Lung, growth inhibition (GI) curve, single agent, 72 h",6.5 nM
same,Emax,"NCI-H358; Homo sapiens, NCI-H358, NCl-H358, Lung, growth inhibition (GI), single agent, 72 h, read-out: Max Response (% GI)",100%
same,Bliss Volume,NCI-H358; [10],−1.58
same,HSA volume,NCI-H358; [10],−4.12
same,Loewe Volume,NCI-H358; [10],−3.93
same,Synergy Score,NCI-H358; [10],3.21
same,Response Area,"NCI-H358; NCl-H358, Lung, Additional Single Agent Responses (inhibition, % I), 72 h",3.44
same,Response Area,"NCI-H358; NCl-H358, Lung, growth inhibition (GI), AUC, single agent, 72 h",4.57
same,Best CI,NCI-H358; [11],0.80
same,Best CI Level,NCI-H358; [11],20
same,Bliss Volume,NCI-H358; [11],−4.08
same,HSA volume,NCI-H358; [11],−3.08
same,Loewe Volume,NCI-H358; [11],−3.28
same,Synergy Score,NCI-H358; [11],0.69
